Assays:
ASIC1a = target: T1, ASIC1a (Mus musculus, UniProt Q6NXK8); assay: Kainate-induced seizures after ICV injection of PcTx1 in wild-type mice; assay type: in vivo; conditions: ICV injection 2 hours before kainate 20 mg/kg IP
T1 construct: from tissue; host or cells: brain of living wild-type mice (C57/B16 background), ICV injection
T1 sequence (Q6NXK8 1-526): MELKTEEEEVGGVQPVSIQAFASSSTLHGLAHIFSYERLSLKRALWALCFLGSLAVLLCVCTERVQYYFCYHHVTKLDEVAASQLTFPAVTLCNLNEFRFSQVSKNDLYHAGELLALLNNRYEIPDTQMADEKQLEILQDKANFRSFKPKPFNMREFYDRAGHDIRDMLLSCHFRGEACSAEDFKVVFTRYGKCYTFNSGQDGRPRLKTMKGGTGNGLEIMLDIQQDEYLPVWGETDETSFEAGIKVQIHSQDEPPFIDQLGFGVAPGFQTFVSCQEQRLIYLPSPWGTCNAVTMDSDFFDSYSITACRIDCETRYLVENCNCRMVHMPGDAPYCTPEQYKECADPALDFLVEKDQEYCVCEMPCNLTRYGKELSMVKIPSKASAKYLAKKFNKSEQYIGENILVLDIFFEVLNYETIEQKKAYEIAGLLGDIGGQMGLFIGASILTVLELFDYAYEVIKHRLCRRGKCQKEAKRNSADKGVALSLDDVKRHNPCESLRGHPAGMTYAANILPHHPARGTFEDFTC
Protocol: Similar effects on seizure activity with both ASIC1a gene disruption and pharmalogical blockade indicate that developmental abnormalities were not responsible for the effects in ASIC1a−/− mice.
Left-lateral, ICV guide cannulae were implanted in anesthetized mice (relative to bregma: anteroposterior −0.3 mm, lateral−1.0 mm, ventral=3.0 mm) and verified by methylene blue injection after euthanasia. Three to five days later, 5 uL or PcTx1-containing venom (SpiderPharm, Yarnell, Ariz.) ([…]) was injected in ACSF (in mM: NaCl 124, KCl 3, NaH2PO4 1.2, MgSO4 1.2, CaCl2 2, NaHCO3 26) or ACSF alone into wild-type mice using a 10 uL-Hamilton syringe connected to a 30-gauge injection (over 10 seconds). Two hours later, mice were injected with kainate (20 mg/kg, IP) then mouse behavior was scored. Continuous, tonic-clonic seizures were identified by tonus and clonus in all four limbs with loss of posture lasting greater than 60 seconds.

[1] = system: PTZ-evoked lethal seizures; assay: CO2 inhalation at onset of PTZ-evoked generalized seizures, survival; assay type: in vivo, mouse; conditions: 90 mg/kg PTZ IP, 10% CO2 in air for 15 minutes from onset of generalized seizures
Protocol: Age (13-16 weeks) and gender-matched ASIC1a+/+ and ASIC1a−/− mice were injected IP with 90 mg/kg PTZ to test the anti-epileptic effects of CO2. A high dose of PTZ was administered to evoke lethal seizures in mice of both genotypes (FIG. 6a). Kaplan-Meier survival analysis of ASIC1a+/+ and ASIC1a−/− mice in response to 90 mg/kg PTZ while breathing compressed air was conducted (+/+, n 7; −/−, n=7). Both mice had the same rate of reduced survival (Mantel-Cox Log Rank, p=0.582).
After the onset of generalized-clonic seizures (identified behaviorally by clonus in all four limbs), compressed air or 10% CO2 (in air) was rapidly administered in an airtight Plexiglas chamber for 15 minutes (FIG. 6b). The onset latency and time of CO2 administration was similar between genotypes (inset) (unpaired T-test, df (14), t=0.663, p=0.518). The chamber was perfused with CO2 until minute 15, and then switched to compressed air for the duration of the trial (+/+, n=8; −/−, n=8). […] In the ASIC1a−/− mice, seizures continued to progress rapidly to death. All of the ASIC1a+/+ mice survived until the CO2 was switched back to air at minute 15, whereupon the mice rapidly died. The results verified the in vitro findings and taught that ASIC1a also mediates the anti-epileptic effects of low pH in vivo.

Compound | incidence of continuous GTCS following kainate injection (ASIC1a) | effect on lethal seizures (survival) ([1]; ASIC1a-/- mice) | effect on lethal seizures (survival) ([1]; WT (ASIC1a+/+) mice)
psalmotoxin 1 [PcTx1] | increased the incidence of continuous GTCS |  | 
O=C=O [CO2, carbon dioxide] |  | had little effect | prevented lethal seizures

— patent publication US20090291150A1, “METHOD AND COMPOSITIONS FOR TREATING AND […] BY […]-SENSING ION CHANNEL ACTIVITY” (priority 2008, published 2009)
